Test results: US9340590B2 (priority 2011, dated 2016)
Read-outs that look alike come from different tables or passages of the source. Positions of bridges follow the written chain, without caps; N, C: chain ends. Non-standard residues stand in square brackets, D forms with d. Residues, ends and D or L forms follow the SMILES beside them. Trp(1-Me) = Cn1cc(C[C@H](N)C(=O)O)c2ccccc21

What was measured:
Experiment in all cases: cell-based
[1] = molecular target: hNav1.7 (Homo sapiens, UniProt Q15858); type: cell-based
Chain of hNav1.7 (Q15858 whole entry, looked up): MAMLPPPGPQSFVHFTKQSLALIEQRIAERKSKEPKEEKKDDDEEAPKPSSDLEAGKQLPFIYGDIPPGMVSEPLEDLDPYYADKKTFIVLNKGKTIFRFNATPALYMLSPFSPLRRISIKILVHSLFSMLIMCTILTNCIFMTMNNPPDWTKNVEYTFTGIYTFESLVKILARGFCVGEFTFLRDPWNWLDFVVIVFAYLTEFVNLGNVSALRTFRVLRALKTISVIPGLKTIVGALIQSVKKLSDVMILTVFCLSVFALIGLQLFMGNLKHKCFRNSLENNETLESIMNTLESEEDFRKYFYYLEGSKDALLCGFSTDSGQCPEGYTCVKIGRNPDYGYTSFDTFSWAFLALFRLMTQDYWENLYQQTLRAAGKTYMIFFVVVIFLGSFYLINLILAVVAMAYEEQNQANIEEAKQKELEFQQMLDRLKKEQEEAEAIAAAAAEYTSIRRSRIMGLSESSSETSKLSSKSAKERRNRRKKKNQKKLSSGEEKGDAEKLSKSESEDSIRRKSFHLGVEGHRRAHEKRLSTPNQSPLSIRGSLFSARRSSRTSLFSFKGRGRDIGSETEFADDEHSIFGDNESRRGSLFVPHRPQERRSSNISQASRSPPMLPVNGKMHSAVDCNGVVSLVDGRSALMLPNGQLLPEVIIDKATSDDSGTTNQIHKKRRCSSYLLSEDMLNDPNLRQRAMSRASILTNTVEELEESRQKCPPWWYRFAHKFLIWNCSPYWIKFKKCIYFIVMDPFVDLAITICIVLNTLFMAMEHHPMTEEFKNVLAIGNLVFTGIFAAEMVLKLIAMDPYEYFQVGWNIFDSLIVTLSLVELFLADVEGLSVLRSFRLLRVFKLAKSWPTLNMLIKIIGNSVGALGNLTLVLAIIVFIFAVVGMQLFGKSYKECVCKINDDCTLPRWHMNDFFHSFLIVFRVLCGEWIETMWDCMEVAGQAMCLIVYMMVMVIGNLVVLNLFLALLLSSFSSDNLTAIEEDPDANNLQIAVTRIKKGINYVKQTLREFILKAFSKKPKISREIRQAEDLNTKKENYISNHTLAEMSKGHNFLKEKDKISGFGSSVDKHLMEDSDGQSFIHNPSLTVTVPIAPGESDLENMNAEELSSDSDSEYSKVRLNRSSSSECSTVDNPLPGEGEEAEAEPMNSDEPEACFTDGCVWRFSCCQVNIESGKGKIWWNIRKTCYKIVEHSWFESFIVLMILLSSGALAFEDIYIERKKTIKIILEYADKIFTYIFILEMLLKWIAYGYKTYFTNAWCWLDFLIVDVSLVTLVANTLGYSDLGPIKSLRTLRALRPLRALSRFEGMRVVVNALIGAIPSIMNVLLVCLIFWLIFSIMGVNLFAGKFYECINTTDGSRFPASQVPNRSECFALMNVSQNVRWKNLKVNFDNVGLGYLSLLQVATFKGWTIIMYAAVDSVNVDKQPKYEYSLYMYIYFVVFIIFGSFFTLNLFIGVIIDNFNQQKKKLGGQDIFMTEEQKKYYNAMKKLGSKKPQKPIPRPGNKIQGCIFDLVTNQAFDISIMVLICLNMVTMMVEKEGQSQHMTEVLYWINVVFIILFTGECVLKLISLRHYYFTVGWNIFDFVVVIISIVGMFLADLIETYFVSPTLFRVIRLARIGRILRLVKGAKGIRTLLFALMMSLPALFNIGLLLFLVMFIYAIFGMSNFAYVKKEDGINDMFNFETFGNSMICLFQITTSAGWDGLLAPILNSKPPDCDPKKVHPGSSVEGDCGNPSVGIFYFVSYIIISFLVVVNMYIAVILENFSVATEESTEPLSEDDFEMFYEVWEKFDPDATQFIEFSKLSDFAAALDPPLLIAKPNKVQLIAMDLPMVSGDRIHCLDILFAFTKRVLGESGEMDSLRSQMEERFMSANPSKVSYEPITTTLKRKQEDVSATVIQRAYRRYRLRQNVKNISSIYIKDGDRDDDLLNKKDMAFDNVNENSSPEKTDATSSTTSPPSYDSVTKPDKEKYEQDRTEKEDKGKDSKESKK

[2] = molecular target: hNav1.5 (Homo sapiens, UniProt Q14524)
Chain of hNav1.5 (Q14524 whole entry, looked up): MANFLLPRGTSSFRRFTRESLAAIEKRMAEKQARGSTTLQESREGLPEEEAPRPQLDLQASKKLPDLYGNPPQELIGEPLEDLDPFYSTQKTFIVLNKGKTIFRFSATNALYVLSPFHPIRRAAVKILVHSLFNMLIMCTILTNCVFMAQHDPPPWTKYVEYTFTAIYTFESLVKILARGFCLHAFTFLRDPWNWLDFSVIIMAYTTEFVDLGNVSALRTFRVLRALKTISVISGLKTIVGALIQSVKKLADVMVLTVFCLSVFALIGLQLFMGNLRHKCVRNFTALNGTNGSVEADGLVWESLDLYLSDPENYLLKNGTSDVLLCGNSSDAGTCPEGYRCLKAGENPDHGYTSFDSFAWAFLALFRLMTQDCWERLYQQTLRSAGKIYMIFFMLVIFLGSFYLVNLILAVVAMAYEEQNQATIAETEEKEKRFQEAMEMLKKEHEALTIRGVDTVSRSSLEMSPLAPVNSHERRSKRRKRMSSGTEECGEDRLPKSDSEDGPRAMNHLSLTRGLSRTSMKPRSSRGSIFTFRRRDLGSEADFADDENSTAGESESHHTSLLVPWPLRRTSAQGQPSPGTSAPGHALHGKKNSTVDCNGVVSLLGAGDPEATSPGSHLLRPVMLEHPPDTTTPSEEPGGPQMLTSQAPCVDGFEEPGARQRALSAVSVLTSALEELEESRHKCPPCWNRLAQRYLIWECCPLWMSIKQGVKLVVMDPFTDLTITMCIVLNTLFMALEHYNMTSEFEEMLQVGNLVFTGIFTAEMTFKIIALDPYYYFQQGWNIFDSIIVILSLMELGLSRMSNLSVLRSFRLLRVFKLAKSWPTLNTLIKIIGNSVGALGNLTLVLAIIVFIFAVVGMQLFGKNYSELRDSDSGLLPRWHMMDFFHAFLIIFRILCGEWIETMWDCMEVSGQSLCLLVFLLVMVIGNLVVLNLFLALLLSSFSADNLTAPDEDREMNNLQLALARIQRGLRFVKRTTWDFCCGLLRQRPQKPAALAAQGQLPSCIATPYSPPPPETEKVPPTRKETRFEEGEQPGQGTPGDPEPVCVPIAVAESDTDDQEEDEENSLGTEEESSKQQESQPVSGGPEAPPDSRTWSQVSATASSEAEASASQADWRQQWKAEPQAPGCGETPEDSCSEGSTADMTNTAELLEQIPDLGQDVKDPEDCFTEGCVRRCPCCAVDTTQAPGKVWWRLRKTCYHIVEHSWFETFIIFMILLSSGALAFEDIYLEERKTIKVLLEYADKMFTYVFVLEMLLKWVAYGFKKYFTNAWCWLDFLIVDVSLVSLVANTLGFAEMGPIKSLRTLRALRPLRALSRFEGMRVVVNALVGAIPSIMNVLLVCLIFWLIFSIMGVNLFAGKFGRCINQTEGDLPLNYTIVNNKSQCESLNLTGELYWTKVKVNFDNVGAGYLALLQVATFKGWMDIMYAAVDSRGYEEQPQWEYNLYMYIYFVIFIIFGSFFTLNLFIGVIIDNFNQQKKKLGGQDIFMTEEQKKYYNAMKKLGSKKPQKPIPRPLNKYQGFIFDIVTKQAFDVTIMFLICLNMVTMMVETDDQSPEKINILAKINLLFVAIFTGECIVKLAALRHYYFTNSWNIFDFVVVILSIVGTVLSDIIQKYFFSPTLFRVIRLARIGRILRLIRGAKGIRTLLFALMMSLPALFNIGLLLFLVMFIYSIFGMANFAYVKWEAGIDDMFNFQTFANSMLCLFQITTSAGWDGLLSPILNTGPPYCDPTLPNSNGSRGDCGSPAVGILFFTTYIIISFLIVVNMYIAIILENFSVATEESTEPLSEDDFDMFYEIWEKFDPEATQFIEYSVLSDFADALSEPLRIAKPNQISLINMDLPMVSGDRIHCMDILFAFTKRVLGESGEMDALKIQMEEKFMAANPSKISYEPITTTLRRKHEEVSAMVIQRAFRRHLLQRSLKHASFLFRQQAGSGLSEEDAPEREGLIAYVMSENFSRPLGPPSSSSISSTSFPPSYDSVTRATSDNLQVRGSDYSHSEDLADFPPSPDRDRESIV

[3] = molecular target: hNav1.3 (Homo sapiens, UniProt Q9NY46); settings: IonWorks Quattro, use-dependent protocol, hNav1.3; read-out: IWQ Use Nav1.3
[4] = IonWorks Quattro, use-dependent protocol, hNav1.7, read-out: IWQ Use Nav1.7
[5] = IonWorks Quattro, use-dependent protocol, hNav1.5, read-out: IWQ Use Nav1.5

Structure (SMILES) | IC50 [1] | IC50 ([2]; IWQ Use Nav1.5) | IC50 [3] | IC50 [1, 4] | IC50 [2, 5]
CC[C@H](C)[C@@H]1NC(=O)[C@@H]2CSSC[C@@H]3NC(=O)[C@H](C(C)C)NC(=O)[C@H](CC(C)C)NC(=O)[C@H](CC(N)=O)NC(=O)[C@@H]4CCCN4C(=O)[C@H](CCCNC(=N)N)NC(=O)[C@H](CSSC[C@H](NC(=O)[C@@H](N)CC(=O)O)C(=O)N[C@@H](CC(C)C)C(=O)NCC(=O)N(C)[C@@H](CC(C)C)C(=O)N[C@@H](CCSC)C(=O)N[C@@H](CCCNC(=N)N)C(=O)N[C@@H](CCCCN)C(=O)N2)NC(=O)[C@H](CSSC[C@@H](C(=O)N[C@@H](CCCCN)C(=O)N[C@@H](Cc2ccc(O)cc2)C(=O)N[C@H](C(=O)N[C@@H](Cc2ccccc2)C(N)=O)C(C)C)NC(=O)[C@H](Cc2c[nH]c4ccccc24)NC(=O)[C@H](CCCCN)NC(=O)[C@H](Cc2cnc[nH]2)NC(=O)[C@H]([C@@H](C)O)NC(=O)[C@H](CCCNC(=N)N)NC(=O)[C@H](CO)NC3=O)NC(=O)[C@H](CCCCN)NC(=O)[C@H](CC(=O)O)NC(=O)[C@H](CC(N)=O)NC(=O)[C@H](CC(=O)O)NC(=O)[C@@H]2CCCN2C1=O [compound 688] | 290 nM | > 5000 nM | 730 nM |  | 
CC[C@H](C)[C@@H]1NC(=O)[C@@H]2CSSC[C@@H]3NC(=O)[C@H](C(C)C)NC(=O)[C@H](CC(C)C)NC(=O)[C@H](CC(N)=O)NC(=O)[C@@H]4CCCN4C(=O)[C@H](CCCNC(=N)N)NC(=O)[C@H](CSSC[C@H](NC(=O)[C@@H](N)CC(=O)O)C(=O)N[C@@H](CC(C)C)C(=O)NCC(=O)N[C@@H](Cc4ccccc4Cl)C(=O)N[C@@H](CCSC)C(=O)N[C@@H](CCCNC(=N)N)C(=O)N[C@@H](CCCCN)C(=O)N2)NC(=O)[C@H](CSSC[C@@H](C(=O)N[C@@H](CCCCN)C(=O)N[C@@H](Cc2ccc(O)cc2)C(=O)N[C@H](C(=O)N[C@@H](Cc2ccccc2)C(N)=O)C(C)C)NC(=O)[C@H](Cc2c[nH]c4ccccc24)NC(=O)[C@H](CCCCN)NC(=O)[C@H](Cc2c[nH]cn2)NC(=O)[C@H]([C@@H](C)O)NC(=O)[C@H](CCCNC(=N)N)NC(=O)[C@H](CO)NC3=O)NC(=O)[C@H](CCCCN)NC(=O)[C@H](CC(=O)O)NC(=O)[C@H](CC(N)=O)NC(=O)[C@H](CC(=O)O)NC(=O)[C@@H]2CCCN2C1=O [compound 689] |  |  | 110 nM | 130 nM | > 5000 nM
CC[C@H](C)[C@@H]1NC(=O)[C@@H]2CSSC[C@@H]3NC(=O)[C@H](C(C)C)NC(=O)[C@H](CC(C)C)NC(=O)[C@H](CC(N)=O)NC(=O)[C@@H]4CCCN4C(=O)[C@H](CCCNC(=N)N)NC(=O)[C@H](CSSC[C@H](NC(=O)[C@@H](N)CC(=O)O)C(=O)N[C@@H](CC(C)C)C(=O)NCC(=O)N[C@@H](CCc4ccccc4)C(=O)N[C@@H](CCSC)C(=O)N[C@@H](CCCNC(=N)N)C(=O)N[C@@H](CCCCN)C(=O)N2)NC(=O)[C@H](CSSC[C@@H](C(=O)N[C@@H](CCCCN)C(=O)N[C@@H](Cc2ccc(O)cc2)C(=O)N[C@H](C(=O)N[C@@H](Cc2ccccc2)C(N)=O)C(C)C)NC(=O)[C@H](Cc2c[nH]c4ccccc24)NC(=O)[C@H](CCCCN)NC(=O)[C@H](Cc2c[nH]cn2)NC(=O)[C@H]([C@@H](C)O)NC(=O)[C@H](CCCNC(=N)N)NC(=O)[C@H](CO)NC3=O)NC(=O)[C@H](CCCCN)NC(=O)[C@H](CC(=O)O)NC(=O)[C@H](CC(N)=O)NC(=O)[C@H](CC(=O)O)NC(=O)[C@@H]2CCCN2C1=O [compound 690] |  | > 5000 nM | 180 nM | 90 nM | 
CC[C@H](C)[C@@H]1NC(=O)[C@@H]2CSSC[C@@H]3NC(=O)[C@H](C(C)C)NC(=O)[C@H](CC(C)C)NC(=O)[C@H](CC(N)=O)NC(=O)[C@@H]4CCCN4C(=O)[C@H](CCCNC(=N)N)NC(=O)[C@H](CSSC[C@H](NC(=O)[C@@H](N)CC(=O)O)C(=O)N[C@@H](CC(C)C)C(=O)NCC(=O)N[C@@H](C)C(=O)N[C@@H](CCSC)C(=O)N[C@@H](CCCNC(=N)N)C(=O)N[C@@H](CCCCN)C(=O)N2)NC(=O)[C@H](CSSC[C@@H](C(=O)N[C@@H](CCCCN)C(=O)N[C@@H](Cc2cn(C)c4ccccc24)C(=O)N[C@H](C(=O)N[C@@H](Cc2ccccc2)C(N)=O)C(C)C)NC(=O)[C@H](Cc2c[nH]c4ccccc24)NC(=O)[C@H](CCCCN)NC(=O)[C@H](Cc2c[nH]cn2)NC(=O)[C@H]([C@@H](C)O)NC(=O)[C@H](CCCNC(=N)N)NC(=O)[C@H](CO)NC3=O)NC(=O)[C@H](CCCCN)NC(=O)[C@H](CC(=O)O)NC(=O)[C@H](CC(N)=O)NC(=O)[C@H](CC(=O)O)NC(=O)[C@@H]2CCCN2C1=O [compound 692] (H-DCLGAMRKCIPDNDKCCRPNLVCSRTHKWCK[Trp(1-Me)]VF-NH2; disulfide 2-17, 9-23, 16-30) |  |  | 630 nM | 180 nM | > 5000 nM
CC[C@H](C)[C@@H]1NC(=O)[C@@H]2CSSC[C@@H]3NC(=O)[C@H](C(C)C)NC(=O)[C@H](CC(C)C)NC(=O)[C@H](CC(N)=O)NC(=O)[C@@H]4CCCN4C(=O)[C@H](CCCNC(=N)N)NC(=O)[C@H](CSSC[C@H](NC(=O)[C@@H](N)CC(=O)O)C(=O)N[C@@H](CC(C)C)C(=O)NCC(=O)N[C@@H](CCSC)C(=O)N[C@@H](CCSC)C(=O)N[C@@H](CCCNC(=N)N)C(=O)N[C@@H](CCCCN)C(=O)N2)NC(=O)[C@H](CSSC[C@@H](C(=O)N[C@@H](CCCCN)C(=O)N[C@@H](Cc2cn(C)c4ccccc24)C(=O)N[C@H](C(=O)N[C@@H](Cc2ccccc2)C(N)=O)C(C)C)NC(=O)[C@H](Cc2c[nH]c4ccccc24)NC(=O)[C@H](CCCCN)NC(=O)[C@H](Cc2c[nH]cn2)NC(=O)[C@H]([C@@H](C)O)NC(=O)[C@H](CCCNC(=N)N)NC(=O)[C@H](CO)NC3=O)NC(=O)[C@H](CCCCN)NC(=O)[C@H](CC(=O)O)NC(=O)[C@H](CC(N)=O)NC(=O)[C@H](CC(=O)O)NC(=O)[C@@H]2CCCN2C1=O [compound 693] (H-DCLGMMRKCIPDNDKCCRPNLVCSRTHKWCK[Trp(1-Me)]VF-NH2; disulfide 2-17, 9-23, 16-30) |  |  | 100 nM | 46 nM | > 5000 nM
CC[C@H](C)[C@@H]1NC(=O)[C@@H]2CSSC[C@@H]3NC(=O)[C@H](C(C)C)NC(=O)[C@H](CC(C)C)NC(=O)[C@H](CC(N)=O)NC(=O)[C@@H]4CCCN4C(=O)[C@H](CCCNC(=N)N)NC(=O)[C@H](CSSC[C@H](NC(=O)[C@@H](N)CC(=O)O)C(=O)N[C@@H](CC(C)C)C(=O)N[C@@H](CCCNC(=N)N)C(=O)N[C@@H](CCSC)C(=O)N[C@@H](CCSC)C(=O)N[C@@H](CCCNC(=N)N)C(=O)N[C@@H](CCCCN)C(=O)N2)NC(=O)[C@H](CSSC[C@@H](C(=O)N[C@@H](CCCCN)C(=O)N[C@@H](Cc2ccc(O)cc2)C(=O)N[C@H](C(=O)N[C@@H](Cc2ccccc2)C(N)=O)C(C)C)NC(=O)[C@H](Cc2c[nH]c4ccccc24)NC(=O)[C@H](CCCCN)NC(=O)[C@H](Cc2c[nH]cn2)NC(=O)[C@H]([C@@H](C)O)NC(=O)[C@H](CCCNC(=N)N)NC(=O)[C@H](CO)NC3=O)NC(=O)[C@H](CCCCN)NC(=O)[C@H](CC(=O)O)NC(=O)[C@H](CC(N)=O)NC(=O)[C@H](CC(=O)O)NC(=O)[C@@H]2CCCN2C1=O [compound 694] (H-DCLRMMRKCIPDNDKCCRPNLVCSRTHKWCKYVF-NH2; disulfide 2-17, 9-23, 16-30) |  |  | 290 nM | 80 nM | > 5000 nM
